Assay results as given in patent US20170037028A1 (BAYER PHARMA AKTIENGESELLSCHAFT, priority 2013, published 2017).
Where two headings read alike, the source gives them in different places.

Molecular target: T1, GLUT1 (Homo sapiens, UniProt P11166)
T1 sequence (P11166 1-492): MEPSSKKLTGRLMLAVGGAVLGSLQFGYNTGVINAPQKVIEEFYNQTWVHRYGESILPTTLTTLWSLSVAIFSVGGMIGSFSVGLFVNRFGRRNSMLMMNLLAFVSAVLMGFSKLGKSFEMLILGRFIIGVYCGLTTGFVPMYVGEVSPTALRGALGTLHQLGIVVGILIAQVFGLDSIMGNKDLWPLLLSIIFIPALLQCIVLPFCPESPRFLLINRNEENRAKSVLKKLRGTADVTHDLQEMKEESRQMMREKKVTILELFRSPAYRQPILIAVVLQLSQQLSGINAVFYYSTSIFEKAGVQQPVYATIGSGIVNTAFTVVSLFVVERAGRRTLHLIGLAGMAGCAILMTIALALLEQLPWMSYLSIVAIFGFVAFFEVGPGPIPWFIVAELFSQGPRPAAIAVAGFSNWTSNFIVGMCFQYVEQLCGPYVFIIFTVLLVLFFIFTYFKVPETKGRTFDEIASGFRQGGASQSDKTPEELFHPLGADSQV
Test: Indirect measurement of GLUT1 activity by quantification of intracellular ATP levels (glucose induced ATP increase)
Format: cell-based
Design: endogenous in cells; host or cells: DLD1 or CHO-K1
Details: read-out: IC50 regarding glucose induced ATP increase (GLUT1 inhibition)
Outline: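 DLD1 or CHO-K1 cells were starved overnight in glucose-free medium with 1% FCS, then combined with an oxidative phosphorylation inhibitor. GLUT1 activity was read as glucose-induced ATP increase, GLUT2 as fructose-induced. Intracellular ATP was quantified by CellTiter-Glo luminescence.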

IC50 | SMILES | IC50 (DLD1 cells, 0.1 mM glucose, 1 μM Rotenone, 15 min, CellTiter-Glo ATP readout, IC50 values standardized to cytochalasin B IC50 values)
0.196 µM | Cc1nn(Cc2ccc(CC(=O)NCc3ccccc3)cc2)c(C)c1NC(=O)c1cc(C(F)(F)F)nc2ccc(Br)cc12 [Example 154, N-(1-{4-[2-(benzylamino)-2-oxoethyl]benzyl}-3,5-dimethyl-1H-pyrazol-4-yl)-6-bromo-2-(trifluoromethyl)quinoline-4-carboxamide] | 
0.312 µM | Cc1nn(Cc2ccc(CC(=O)Nc3ccccc3)cc2)c(C)c1NC(=O)c1cc(C(F)(F)F)nc2ccc(Br)cc12 [Example 155, 6-bromo-N-(3,5-dimethyl-1-{4-[2-oxo-2-(phenylamino)ethyl]benzyl}-1H-pyrazol-4-yl)-2-(trifluoromethyl)quinoline-4-carboxamide] | 
0.354 µM | Cc1nn(Cc2ccc(CC(=O)N(C)C)cc2)c(C)c1NC(=O)c1cc(C(F)(F)F)nc2ccc(Br)cc12 [Example 156, 6-bromo-N-(1-{4-[2-(dimethylamino)-2-oxoethyl]benzyl}-3,5-dimethyl-1H-pyrazol-4-yl)-2-(trifluoromethyl)quinoline-4-carboxamide] | 
0.437 µM | Cc1nn(Cc2ccc(CC(=O)NCc3cccnc3)cc2)c(C)c1NC(=O)c1cc(C(F)(F)F)nc2ccc(Br)cc12 [Example 157, 6-bromo-N-[3,5-dimethyl-1-(4-{2-oxo-2-[(pyridin-3-ylmethyl)amino]ethyl}benzyl)-1H-pyrazol-4-yl]-2-(trifluoromethyl)quinoline-4-carboxamide] | 
0.521 µM | Cc1nn(Cc2ccc(CC(=O)N3CCOCC3)cc2)c(C)c1NC(=O)c1cc(C(F)(F)F)nc2ccc(Br)cc12 [Example 158, 6-bromo-N-(3,5-dimethyl-1-{4-[2-(morpholin-4-yl)-2-oxoethyl]benzyl}-1H-pyrazol-4-yl)-2-(trifluoromethyl)quinoline-4-carboxamide] | 
0.875 µM | Cc1nn(Cc2ccc(CC(=O)NCCO)cc2)c(C)c1NC(=O)c1cc(C(F)(F)F)nc2ccc(Br)cc12 [Example 159, 6-bromo-N-[1-(4-{2-[(2-hydroxyethyl)amino]-2-oxoethyl}benzyl)-3,5-dimethyl-1H-pyrazol-4-yl]-2-(trifluoromethyl)quinoline-4-carboxamide] | 
0.0143 µM | Cc1nn(Cc2ccncc2)c(C)c1NC(=O)c1cc(C(F)(F)F)nc2ccc(Br)cc12 [Example 160, 6-bromo-N-[3,5-dimethyl-1-(pyridin-4-ylmethyl)-1H-pyrazol-4-yl]-2-(trifluoromethyl)quinoline-4-carboxamide] | 
0.0151 µM | Cc1c(NC(=O)c2cc(C(F)(F)F)nc3ccc(Br)cc23)c(C(F)(F)F)nn1Cc1ccc(C#N)cc1 [Example 161, 6-bromo-N-[1-(4-cyanobenzyl)-5-methyl-3-(trifluoromethyl)-1H-pyrazol-4-yl]-2-(trifluoromethyl)quinoline-4-carboxamide] | 
0.0248 µM | Cc1nn(Cc2ccc(F)c(F)c2)c(C)c1NC(=O)c1cc(C2CC2)nc2ccc(F)cc12 [Example 162, 2-cyclopropyl-N-[1-(3,4-difluorobenzyl)-3,5-dimethyl-1H-pyrazol-4-yl]-6-fluoroquinoline-4-carboxamide] | 
0.025 µM | Cc1nn(Cc2ccc(F)cc2)c(C)c1NC(=O)c1cc(N(C)C)nc2ccccc12 [Example 163, 2-(dimethylamino)-N-[1-(4-fluorobenzyl)-3,5-dimethyl-1H-pyrazol-4-yl]quinoline-4-carboxamide] | 
0.0271 µM | Cc1nn(Cc2ccc(O)cc2)c(C)c1NC(=O)c1cc(C(F)(F)F)nc2ccc(Br)cc12 [Example 164, 6-bromo-N-[1-(4-hydroxybenzyl)-3,5-dimethyl-1H-pyrazol-4-yl]-2-(trifluoromethyl)quinoline-4-carboxamide] | 
0.0304 µM | Cc1nn(Cc2ccc(F)c(F)c2)c(C)c1NC(=O)c1cc(C(F)(F)F)nc2ccc(Cl)cc12 [Example 165, 6-chloro-N-[1-(3,4-difluorobenzyl)-3,5-dimethyl-1H-pyrazol-4-yl]-2-(trifluoromethyl)quinoline-4-carboxamide] | 
0.0411 µM | Cc1nn(Cc2ccc(F)cc2)c(C)c1NC(=O)c1cc(C(F)(F)F)nc2ccc(-c3ccccc3)cc12 [Example 166, N-[1-(4-fluorobenzyl)-3,5-dimethyl-1H-pyrazol-4-yl]-6-phenyl-2-(trifluoromethyl)quinoline-4-carboxamide] | 
0.0462 µM | Cc1c(NC(=O)c2cc(C(F)(F)F)nc3c(Cl)cc(Cl)cc23)c(C(F)(F)F)nn1Cc1ccc(C#N)cc1 [Example 167, 6,8-dichloro-N-[1-(4-cyanobenzyl)-5-methyl-3-(trifluoromethyl)-1H-pyrazol-4-yl]-2-(trifluoromethyl)quinoline-4-carboxamide] | 
0.0478 µM | Cc1nn(Cc2ccc(F)c(F)c2)c(C)c1NC(=O)c1cc(C(F)(F)F)nc2cc(F)ccc12 [Example 168, N-[1-(3,4-difluorobenzyl)-3,5-dimethyl-1H-pyrazol-4-yl]-7-fluoro-2-(trifluoromethyl)quinoline-4-carboxamide] | 
0.0505 µM | Cc1nn(Cc2ccc(C#N)cc2)c(C)c1NC(=O)c1cc(C(F)(F)F)nc2cc(F)c(F)cc12 [Example 169, N-[1-(4-cyanobenzyl)-3,5-dimethyl-1H-pyrazol-4-yl]-6,7-difluoro-2-(trifluoromethyl)quinoline-4-carboxamide] | 
0.0544 µM | Cc1nn(CC2CCCCC2)c(C)c1NC(=O)c1cc(C(F)(F)F)nc2ccc(Br)cc12 [Example 170, 6-bromo-N-[1-(cyclohexylmethyl)-3,5-dimethyl-1H-pyrazol-4-yl]-2-(trifluoromethyl)quinoline-4-carboxamide] | 
0.0571 µM | Cc1nn(Cc2cccnc2)c(C)c1NC(=O)c1cc(C(F)(F)F)nc2ccc(Br)cc12 [Example 171, 6-bromo-N-[3,5-dimethyl-1-(pyridin-3-ylmethyl)-1H-pyrazol-4-yl]-2-(trifluoromethyl)quinoline-4-carboxamide] | 
0.0591 µM | CNC(=O)c1cc(C(=O)Nc2c(C)nn(Cc3ccc(F)cc3)c2C)c2ccccc2n1 [Example 172, N^4-[1-(4-fluorobenzyl)-3,5-dimethyl-1H-pyrazol-4-yl]-N^2-methylquinoline-2,4-dicarboxamide] | 
0.0652 µM | Cc1nn(Cc2ccc(F)c(F)c2)c(C)c1NC(=O)c1cc(C(F)(F)F)nc2cccc(F)c12 [Example 173, N-[1-(3,4-difluorobenzyl)-3,5-dimethyl-1H-pyrazol-4-yl]-5-fluoro-2-(trifluoromethyl)quinoline-4-carboxamide] | 
0.0696 µM | Cc1nn(Cc2ccc(F)c(F)c2)c(C)c1NC(=O)c1cc(C(F)(F)F)nc2ccc(F)cc12 [Example 174, N-[1-(3,4-difluorobenzyl)-3,5-dimethyl-1H-pyrazol-4-yl]-6-fluoro-2-(trifluoromethyl)quinoline-4-carboxamide] | 
0.0707 µM | Cc1nn(Cc2ccccc2C#N)c(C)c1NC(=O)c1cc(C(F)(F)F)nc2cc(F)c(F)cc12 [Example 175, N-[1-(2-cyanobenzyl)-3,5-dimethyl-1H-pyrazol-4-yl]-6,7-difluoro-2-(trifluoromethyl)quinoline-4-carboxamide] | 
0.0722 µM | CCN(C(=O)c1cc(C(F)(F)F)nc2ccc(Br)cc12)c1c(C)nn(Cc2ccc(F)cc2)c1C [Example 176, 6-bromo-N-ethyl-N-[1-(4-fluorobenzyl)-3,5-dimethyl-1H-pyrazol-4-yl]-2-(trifluoromethyl)quinoline-4-carboxamide] | 
0.0739 µM | Cc1nn(Cc2ccc(F)c(F)c2)c(C)c1NC(=O)c1cc(C(F)(F)F)nc2cc(F)c(F)cc12 [Example 177, N-[1-(3,4-difluorobenzyl)-3,5-dimethyl-1H-pyrazol-4-yl]-6,7-difluoro-2-(trifluoromethyl)quinoline-4-carboxamide] | 
0.0785 µM | CNC(=O)c1cc(C(=O)Nc2c(C(F)(F)F)nn(Cc3ccc(F)cc3)c2C)c2ccccc2n1 [Example 178, N^4-[1-(4-fluorobenzyl)-5-methyl-3-(trifluoromethyl)-1H-pyrazol-4-yl]-N2-methylquinoline-2,4-dicarboxamide] | 
0.0785 µM | Cc1c(NC(=O)c2cc(C(F)(F)F)nc3ccc(Br)cc23)c(C(F)(F)F)nn1Cc1ccc(F)cc1F [Example 179, 6-bromo-N-[1-(2,4-difluorobenzyl)-5-methyl-3-(trifluoromethyl)-1H-pyrazol-4-yl]-2-(trifluoromethyl)quinoline-4-carboxamide] | 
0.0937 µM | Cc1nn(Cc2ccc(Cl)s2)c(C)c1NC(=O)c1cc(C(F)(F)F)nc2ccc(Br)cc12 [Example 180, 6-bromo-N-{1-[(5-chlorothiophen-2-yl)methyl]-3,5-dimethyl-1H-pyrazol-4-yl}-2-(trifluoromethyl)quinoline-4-carboxamide] | 
 | Cc1nn(Cc2ccc(F)cc2)c(C)c1NC(=O)c1cc(C(F)(F)F)nc2ccccc12 [Example 181, N-[1-(4-fluorobenzyl)-3,5-dimethyl-1H-pyrazol-4-yl]-2-(trifluoromethyl)quinoline-4-carboxamide] | 0.0938 µM
0.101 µM | Cc1c(NC(=O)c2cc(C(F)(F)F)nc3cc(F)c(F)cc23)c(C(F)(F)F)nn1Cc1ccc(C#N)cc1 [Example 182, N-[1-(4-cyanobenzyl)-5-methyl-3-(trifluoromethyl)-1H-pyrazol-4-yl]-6,7-difluoro-2-(trifluoromethyl)quinoline-4-carboxamide] | 
